Results on two compounds are retold here after patent US20260049079A1, “CHIRAL SYNTHESIS OF FUSED BICYCLIC RAF INHIBITORS” (Jazz Pharmaceuticals Ireland Limited, priority 2020, published 2026).

In brackets after ≈: the same amount, converted by molar mass.

Data set [1] can be described thus: FeSSIF Solubility Assay. The format is physicochemical. The note with it: fed state simulated intestinal fluid (FeSSIF), thermodynamic from solid, pH 5 acetate buffer, 37° C., read-out: FESSIF sol. As to the method: 1 mL of fed state simulated intestinal fluid (FeSSIF), prepared using FaSSIF/FeSSIF/FaSSGF powder (Biorelevant.com) and pH 5 acetate buffer, was added to 1.0 mg of compound and then incubated for 24 h (Bioshake iQ, 650 rpm, 37° C.). Following filtration under positive pressure, the concentration of compound in solution was assessed by LC-UV in comparison to the response for a calibration standard of known concentration (250 μM). FeSSIF solubility results are described in Table 34D.

In data set [2] the test system is HCT-116 cells. As to the kind of experiment: HCT-116 CellTiter-Glo 3D Cell Proliferation Assay. Format: cell-based. To be noted: Homo sapiens, HCT116 spheroids, read-out: 3D HCT116 pGI50 (converted). (In general: ATP-based viability assays read luminescence as a measure of living cells.)
Procedure: HCT-116 CellTiter-Glo 3D) Cell Proliferation Assay
On the first day, HCT-116 cells were harvested, resuspended in growth medium (McCoys5A with Glutamax (Life Technologies 36600021) with 10% heat-inactivated fetal bovine serum (Sigma F9665)), and counted. Cells were plated in 100 μl per well in each well of a Corning 7007 96-well clear round bottom Ultra-Low Attachment plate (VWR 444-1020) to a final density of 1000 cells per well. Cells were seeded for pre- and post-treatment readouts. The cells were then incubated at 37° C. and 5% CO2 for 3 days (72 hours) to allow spheroid formation. After 72 hours, the plate seeded for a pre-treatment read was removed from the incubator to allow equilibration to room temperature for 30 minutes, before CellTitre-Glo® reagent was added to each well. The plates were incubated at room temperature for 5 minutes shaking at 300 rpm, followed by an incubation of 25 minutes on the benchtop before being read on the Envision reader (Perkin Elmer) as described below. On the same day, the cells plated for the post-treatment readout were dosed with compounds to produce a 9-point dose response, where the top concentration was 15 M and following concentrations were at ½ log dilution intervals. […] Therefore, plates were read on an EnVision reader (Perkin Elmer) and luminescence signals were recorded. […]

Consider `O=C1CCc2c(Oc3ccc4c(c3)C[C@@H](c3nc(-c5ccc(F)cc5)c[nH]3)CO4)ccnc2N1` (single isomer, unassigned) [Compound A-1], for which, in data set [1], the solubility thermodynamic at 24 h is 9.9 µg/mL (≈ 21.7 µM). In addition, in data set [2], the GI50 was 40.7 nM.

For `O=C1CCc2c(Oc3ccc4c(c3)C[C@H](c3nc(-c5ccc(F)cc5)c[nH]3)CO4)ccnc2N1` (single isomer, unassigned) [Compound A-2], the solubility thermodynamic at 24 h in data set [1] is 9.4 µg/mL (≈ 20.6 µM). In data set [2], the GI50 was 263 nM.
